Data published in ChEMBL document CHEMBL1201862, “PubChem BioAssay data set” (2004).
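Briefly, cells in 96-well plates were exposed to five compound concentrations for 48 h, and endpoints were estimated by linear interpolation. GI50: concentration for 50% inhibition of growth.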 Active and inactive are the calls of the source. No stated cut-off is given here; in the data, active = GI50 up to about 1.1 µM and inactive = higher.

What was measured:
Assay in all cases: NCI anticancer screen, dose series, 48 h
BT-549 = system: BT-549
CCRF-CEM = system: CCRF-CEM
COLO 205 = system: COLO 205
HOP-92 = system: HOP-92
Hs-578T = system: Hs-578T
K562 = system: K562
LOX IMVI = system: LOX IMVI
MDA-N = system: MDA-N
MOLT-4 = system: MOLT-4
NCI-H460 = system: NCI-H460
NCI-H522 = system: NCI-H522
RPMI-8226 = system: RPMI-8226
RXF 393 = system: RXF 393
SF-539 = system: SF-539
SK-MEL-28 = system: SK-MEL-28
SK-OV-3 = system: SK-OV-3
TK-10 = system: TK-10
U-251 = system: U-251
UACC-62 = system: UACC-62
UO-31 = system: UO-31

Measured: GI50

C=C1C(C2(C)C=CC(=O)OC3(C)COC(=O)CC32)C(OC=O)C(OC(=O)C(O)C(C)CC)C2(C)C(c3ccoc3)CC(OC(C)=O)C12O (stereo not given)
inactive: BT-549 54.6 µM | CCRF-CEM 35 µM | COLO 205 81.8 µM | HOP-92 > 100 µM | Hs-578T > 100 µM | K562 > 100 µM | LOX IMVI 25.3 µM | MDA-N 37.6 µM | MOLT-4 > 100 µM | NCI-H460 42.1 µM | NCI-H522 > 100 µM | RPMI-8226 > 100 µM | RXF 393 > 100 µM | SF-539 > 100 µM | SK-MEL-28 > 100 µM | SK-OV-3 > 100 µM | TK-10 > 100 µM | U-251 > 100 µM | UACC-62 35.6 µM | UO-31 67.3 µM

CC1=C/C(=C(/c2ccc(O)c(C)c2)c2ccccc2C(=O)O)C=CC1=O
inactive: BT-549 21.1 µM | CCRF-CEM 21.8 µM | COLO 205 19.9 µM | HOP-92 20.3 µM | Hs-578T 25.4 µM | K562 21.3 µM | LOX IMVI 20.7 µM | MDA-N 18.7 µM | MOLT-4 21.9 µM | NCI-H460 31.5 µM | NCI-H522 21.5 µM | RPMI-8226 20 µM | RXF 393 17.4 µM | SF-539 19 µM | SK-MEL-28 20.4 µM | SK-OV-3 19.2 µM | TK-10 17.3 µM | U-251 18.2 µM | UACC-62 17.2 µM | UO-31 18.8 µM
